In PubChem BioAssay AID1259408 (Genetic Toxicology Data Bank (GENE-TOX), 2018):
Calls of active or inactive are those of the source. How the calls were made is not given here.

System: GENE-TOX genotoxicity assays, various organisms and cells
Assay: GENE-TOX mutagenicity studies
Conditions: for call: Assay Type: In vivo carcinogenicity studies
[1] = Species/Cell Type: Escherichia coli polA (W3119 vs P3478), Assay Type: Rec-assay, DNA effects (bacterial DNA repair), Assay Code: RE1+, Evaluation Type: Evaluation A (Pre-1980)
[2] = Species/Cell Type: Nonhuman, Assay Code: CCG+, Evaluation Type: Evaluation A (Pre-1980)
[3] = Species/Cell Type: Saccharomyces cerevisiae, Assay Type: Mitotic recombination or gene conversion, Assay Code: YEH+, Evaluation Type: Evaluation A (Pre-1980)
[4] = Species/Cell Type: Salmonella typhimurium (one or more of the five standard strains: TA98, TA100, TA1535, TA1537, and TA1538), Assay Type: Histidine reverse gene mutation, Ames assay, Assay Code: SAL+, Evaluation Type: Evaluation A (Pre-1980)
[5] = Species/Cell Type: Salmonella typhimurium, Assay Type: Forward and reverse gene mutation, host-mediated assay, Assay Code: HMA+, Evaluation Type: Evaluation A (Pre-1980)
[6] = Species/Cell Type: Syrian hamster embryo (SHE) cells, Assay Type: Cell transformation, clonal assay, Assay Code: CTCT, Evaluation Type: Evaluation A (Pre-1980)
[7] = Species/Cell Type: Neurospora crassa, Assay Type: Aneuploidy, chromosome aberrations, Assay Code: NEN-, Evaluation Type: Evaluation A (Pre-1980)
[8] = Species/Cell Type: Nonhuman, Assay Code: CCG-L, Evaluation Type: Evaluation A (Pre-1980)
[9] = Species/Cell Type: Drosophila melanogaster, Assay Type: Sex-linked recessive lethal gene mutation, Assay Code: SRL-, Evaluation Type: Evaluation A (Pre-1980)
[10] = Species/Cell Type: Escherichia coli polA (W3119 vs P3478), Assay Type: Rec-assay, DNA effects (bacterial DNA repair), Assay Code: RE1T, Evaluation Type: Evaluation A (Pre-1980)
[11] = Species/Cell Type: Mammalian polychromatic erythrocytes, Assay Type: Micronucleus test, chromosome aberrations, Assay Code: MNTT, Evaluation Type: Evaluation B (Post-1980)
[12] = Species/Cell Type: Salmonella typhimurium (one or more of the five standard strains: TA98, TA100, TA1535, TA1537, and TA1538), Assay Type: Histidine reverse gene mutation, Ames assay, Assay Code: SAL-, Evaluation Type: Evaluation A (Pre-1980)
[13] = Species/Cell Type: Salmonella typhimurium (one or more of the five standard strains: TA98, TA100, TA1535, TA1537, and TA1538), Assay Type: Histidine reverse gene mutation, Ames assay, Assay Code: SAL+*, Activation: With metabolic activation, Evaluation Type: Evaluation A (Pre-1980)
[14] = Species/Cell Type: Drosophila melanogaster, Assay Type: Sex-linked recessive lethal gene mutation, Assay Code: SRLT, Evaluation Type: Evaluation A (Pre-1980)
[15] = Species/Cell Type: Nonhuman, Assay Type: Sister-chromatid exchange (SCE) in vitro, Assay Code: SC2+D, Dose Response: With dose response, Evaluation Type: Evaluation B (Post-1980)

O=S1(=O)CCCO1
mutagenic call [1]: active; positive
mutagenic call (Species/Cell Type: Fischer rat embryo (RLV/1706) cells, Assay Type: Cell transformation, viral enhanced, Assay Code: CTR+, Evaluation Type: Evaluation A (Pre-1980)): active; positive
mutagenic call (Species/Cell Type: Hordeum vulgare (barley), Assay Type: Chromosome aberrations, Assay Code: HOC+D, Dose Response: With dose response, Evaluation Type: Evaluation A (Pre-1980)): active; positive
mutagenic call (Species/Cell Type: Human diploid fibroblasts, Assay Type: Unscheduled DNA synthesis (UDS) in vitro, DNA effects, Assay Code: UDH+D, Dose Response: With dose response, Evaluation Type: Evaluation A (Pre-1980)): active; positive
call [2]: active; positive
mutagenic call (Species/Cell Type: Nonhuman, Assay Type: Sister-chromatid exchange (SCE) in vitro, Assay Code: SC2+D, Dose Response: With dose response, Evaluation Type: Evaluation A (Pre-1980)): active; positive
mutagenic call (Species/Cell Type: Saccharomyces cerevisiae, Assay Type: Mitotic recombination or gene conversion, Assay Code: YEC+, Evaluation Type: Evaluation A (Pre-1980)): active; positive
mutagenic call [3]: active; positive
mutagenic call [4]: active; positive
mutagenic call [5]: active; positive
mutagenic call (Species/Cell Type: Schizosaccharomyces pombe, Assay Type: Reverse gene mutation, Assay Code: YEZ+, Evaluation Type: Evaluation A (Pre-1980)): active; positive
mutagenic call (Species/Cell Type: Syrian hamster embryo (SA7/SHE) cells, Assay Type: Cell transformation, viral enhanced, Assay Code: CT7+, Evaluation Type: Evaluation A (Pre-1980)): active; positive
mutagenic call [6]: no conclusion
mutagenic call (Species/Cell Type: Vicia faba, Assay Type: Chromosome aberrations, Assay Code: VIC+, Evaluation Type: Evaluation A (Pre-1980)): active; positive

Nc1ccc(Nc2ccccc2)cc1
mutagenic call [7]: inactive; negative
call [8]: inactive; negative

Nc1ccc(N)c(Cl)c1
call [8]: inactive; negative

C[C@]12CC[C@@H]3c4ccc(O)cc4CC[C@H]3[C@@H]1CC[C@@H]2O
mutagenic call (Species/Cell Type: Human lymphocytes, Assay Type: Sister-chromatid exchange (SCE) in vitro, Assay Code: SCL-*, Activation: With metabolic activation, Evaluation Type: Evaluation B (Post-1980)): inactive; negative
mutagenic call (Species/Cell Type: Human lymphocytes, Assay Type: Sister-chromatid exchange (SCE) in vitro, Assay Code: SCL-, Evaluation Type: Evaluation B (Post-1980)): inactive; negative
mutagenic call (Species/Cell Type: Human, Assay Type: Sister-chromatid exchange (SCE) in vitro, Assay Code: SC1-, Evaluation Type: Evaluation B (Post-1980)): inactive; negative
mutagenic call (Species/Cell Type: Mouse, Sex: Male, Assay Type: Sperm morphology, Assay Code: SPI+, Evaluation Type: Evaluation A (Pre-1980)): active; positive
call [2]: active; positive
mutagenic call (Species/Cell Type: Nonhuman, Assay Type: Sister-chromatid exchange (SCE) in vitro, Assay Code: SC2T, Evaluation Type: Evaluation B (Post-1980)): no conclusion
mutagenic call (Species/Cell Type: Rat, Sex: Male, Assay Type: Sperm morphology, Assay Code: SPA+, Evaluation Type: Evaluation A (Pre-1980)): active; positive

COP(=O)(NC(C)=O)SC (stereo unspecified)
mutagenic call (Species/Cell Type: Bacillus subtilis (H17 vs M45), Assay Type: Rec-assay, spot test, DNA effects (bacterial DNA repair), Assay Code: REWT, Evaluation Type: Evaluation A (Pre-1980)): no conclusion
mutagenic call [9]: inactive; negative
mutagenic call (Species/Cell Type: Escherichia coli WP2 UVRA, Assay Type: Tryptophan reverse gene mutation, Assay Code: WPU-*, Activation: With metabolic activation, Evaluation Type: Evaluation A (Pre-1980)): inactive; negative
mutagenic call [10]: no conclusion
mutagenic call (Species/Cell Type: Human diploid fibroblasts, Assay Type: Unscheduled DNA synthesis (UDS) in vitro, DNA effects, Assay Code: UDH-, Evaluation Type: Evaluation A (Pre-1980)): inactive; negative
mutagenic call [11]: no conclusion
mutagenic call [7]: inactive; negative
mutagenic call (Species/Cell Type: Nonhuman, Assay Type: Sister-chromatid exchange (SCE) in vivo, Assay Code: SC3T, Evaluation Type: Evaluation B (Post-1980)): no conclusion
mutagenic call [3]: active; positive
mutagenic call [12]: inactive; negative

COc1ccc(C[C@H](N)C(=O)N[C@H]2[C@@H](O)[C@H](n3cnc4c(N(C)C)ncnc43)O[C@@H]2CO)cc1
mutagenic call (Species/Cell Type: Escherichia coli polA (W3110 vs P3478), Assay Type: Rec-assay, DNA effects (bacterial DNA repair), Assay Code: RE2+, Evaluation Type: Evaluation A (Pre-1980)): active; positive
mutagenic call (Species/Cell Type: Escherichia coli polA (W3119 vs P3478), Assay Type: Rec-assay, DNA effects (bacterial DNA repair), Assay Code: RE1-, Evaluation Type: Evaluation A (Pre-1980)): inactive; negative
mutagenic call (Species/Cell Type: Glycine max (soybean), Assay Type: Gene mutation, Assay Code: GLMT, Evaluation Type: Evaluation A (Pre-1980)): no conclusion
mutagenic call (Species/Cell Type: Rodents, Sex: Male, Assay Type: Dominant lethal test, Assay Code: DLT-, Evaluation Type: Evaluation A (Pre-1980)): inactive; negative

C[C@@H]1[C@H](O)[C@@H](C)/C=C/C=C/CC/C=C/C=C/C=C/C=C/C(O[C@H]2O[C@H](C)[C@@H](O)[C@H](N)[C@@H]2O)CC2O[C@](O)(CC(O)C(O)CCC(O)CC(O)CC(O)CC(=O)O[C@H]1C)CC(O)C2C(=O)O (stereo partly specified)
mutagenic call [7]: inactive; negative

CC[C@@]1(O)C[C@H](O[C@H]2C[C@H](N)[C@H](O)[C@H](C)O2)c2c(cc3c(c2O)C(=O)c2c(O)cccc2C3=O)[C@H]1C(=O)OC
mutagenic call [13]: active; positive

CN1CCN(CC(=O)N2c3ccccc3C(=O)Nc3cccnc32)CC1
mutagenic call [11]: no conclusion

CCOC(=O)Nc1ncc(-c2ccc(Cl)cc2)[nH]1
mutagenic call (Species/Cell Type: Salmonella typhimurium, Assay Type: Forward and reverse gene mutation, host-mediated assay, Assay Code: HMAT, Evaluation Type: Evaluation A (Pre-1980)): no conclusion

O=NN(CCCl)C(=O)NC(NC(=O)N(CCCl)N=O)(c1ccccc1)c1ccccc1
mutagenic call (Species/Cell Type: Drosophila melanogaster, Assay Type: Sex-linked recessive lethal gene mutation, Assay Code: SRL+, Evaluation Type: Evaluation A (Pre-1980)): active; positive

c1ncncn1
mutagenic call [14]: no conclusion

COc1cc(-c2ccc(N)c(OC)c2)ccc1N
mutagenic call [10]: no conclusion
mutagenic call (Species/Cell Type: Human diploid fibroblasts, Assay Type: Unscheduled DNA synthesis (UDS) in vitro, DNA effects, Assay Code: UDH+*, Activation: With metabolic activation, Evaluation Type: Evaluation A (Pre-1980)): active; positive
call [2]: active; positive
mutagenic call [15]: active; positive
mutagenic call [13]: active; positive

CNNC
mutagenic call [1]: active; positive
mutagenic call [10]: no conclusion
mutagenic call (Species/Cell Type: Mammalian polychromatic erythrocytes, Assay Type: Micronucleus test, chromosome aberrations, Assay Code: MNT+, Evaluation Type: Evaluation B (Post-1980)): active; positive
mutagenic call (Species/Cell Type: Mammalian polychromatic erythrocytes, Assay Type: Micronucleus test, chromosome aberrations, Assay Code: MNTT, Evaluation Type: Evaluation A (Pre-1980)): no conclusion
mutagenic call [11]: no conclusion
call [2]: active; positive
mutagenic call [15]: active; positive
mutagenic call (Species/Cell Type: Saccharomyces cerevisiae, Assay Type: Mitotic recombination or gene conversion, Assay Code: YEHT, Evaluation Type: Evaluation A (Pre-1980)): no conclusion
mutagenic call [12]: inactive; negative
mutagenic call (Species/Cell Type: Salmonella typhimurium, Assay Type: Forward and reverse gene mutation, body fluid assay, Assay Code: BFU-, Evaluation Type: Evaluation A (Pre-1980)): inactive; negative
mutagenic call [5]: active; positive
mutagenic call [6]: no conclusion

CO[C@H]1/C=C/O[C@@]2(C)Oc3c(C)c(O)c4c(O)c(c(/C=N/N5CCN(C)CC5)c(O)c4c3C2=O)NC(=O)/C(C)=C\C=C\[C@H](C)[C@H](O)[C@@H](C)[C@@H](O)[C@@H](C)[C@H](OC(C)=O)[C@@H]1C
mutagenic call [14]: no conclusion

COc1cc(S(=O)(=O)O)c(C)cc1N=Nc1c(O)ccc2cc(S(=O)(=O)O)ccc12
mutagenic call [9]: inactive; negative
mutagenic call [12]: inactive; negative

COP(=O)(Oc1cc(Cl)c(Br)cc1Cl)c1ccccc1 (stereo unspecified)
mutagenic call [15]: active; positive

O=[N+]([O-])c1ccc2ncccc2c1
mutagenic call [4]: active; positive
